Results: US20260345596A1, “TREATMENT OF LOCALLY ADVANCED OR METASTATIC UROTHELIAL CARCINOMA WITH ERDAFINITIB” (priority 2023, published 2026)
Values joined by “and” are separate entries in the source; they are usually repeats but may differ in a detail not shown here. Identical values can stand only once.

Assay: Study BLC3001 (NCT03390504, THOR) Cohort 1: safety, adverse events, laboratory abnormalities and exposure
[1] = adverse events leading to death
[2] = any grade, adverse events of interest
[3] = any grade, serious adverse events, any cause
[4] = grade 3-4 adverse events of interest

## COc1cc(OC)cc(N(CCNC(C)C)c2ccc3ncc(-c4cnn(C)c4)nc3c2)c1 [Erdafitinib, N-(3,5-dimethoxyphenyl)-N′-(1-methylethyl)-N-[3-(1-methyl-1H-pyrazol-4-yl)quinoxalin-6-yl]ethane-1,2-diamine]
Grade ≥3, treatment-related
  Aspartate aminotransferase increased: 2 (1.5) no. (%)
  Asthenia: 0 no. (%)
  Constipation: 0 no. (%)
  Decreased appetite: 3 (2.2) no. (%)
  Diarrhea: 4 (3.0) no. (%)
  Dry eye: 0 no. (%)
  Dry mouth: 0 no. (%)
  Dry skin: 2 (1.5) no. (%)
  Dysgeusia: 1 (0.7) no. (%)
  Fatigue: 0 no. (%)
  Hyperphosphatemia: 7 (5.2) no. (%)
  Nausea: 1 (0.7) no. (%)
  Neutropenia: 0 no. (%)
  Onycholysis: 8 (5.9) no. (%)
  Onychomadesis: 2 (1.5) no. (%)
  Palmar-plantar erythrodysesthesia syndrome: 13 (9.6) no. (%)
  Stomatitis: 11 (8.1) no. (%)
[1]
  Atypical pneumonia: 0 no. (%)
  Cardiorespiratory arrest: 1 (0.7) no. (%)
  Febrile bone marrow aplasia: 0 no. (%)
  Febrile neutropenia: 0 no. (%)
  Pneumonia necrotizing: 1 (0.7) no. (%)
  Renal failure: 1 (0.7) no. (%)
  Septic shock: 0 no. (%)
  Sudden death: 2 (1.5) no. (%)
Any cause
  Adverse events leading to treatment discontinuation: 19 (14.1%) no. (%) and 19 (14.1) no. (%)
Any grade
  Central serous retinopathy: 23 (17.0%) n (%) and 23 (17.0) n (%)
  Eye disorders (excluding central serous retinopathy): 57 (42.2) n (%)
  Nail disorders: 90 (66.7) n (%)
  Skin disorders: 74 (54.8) n (%)
[2]
  Central serous retinopathy: 23 (17.0) no. (%)
  Chorioretinopathy: 8 (5.9) no. (%)
  Detachment of macular retinal pigment epithelium: 1 (0.7) no. (%)
  Detachment of retinal pigment epithelium: 7 (5.2) no. (%)
  Eye disorders (excluding central serous retinopathy): 57 (42.2) no. (%)
  Macular detachment: 2 (1.5) no. (%)
  Nail disorders: 90 (66.7) no. (%)
  Retinopathy: 2 (1.5) no. (%)
  Skin disorders: 74 (54.8) no. (%)
  Subretinal fluid: 5 (3.7) no. (%)
[3]
  Hematuria: 5 (3.7) no. (%)
  Hyponatremia: 3 (2.2) no. (%)
  Urinary tract infection: 6 (4.4) no. (%)
Any grade, treatment-emergent
  Neutropenia: 0 no.
Any grade, treatment-related
  Alanine aminotransferase increased: 29 (21.5) no. (%)
  Alopecia: 32 (23.7) no. (%)
  Anemia: 16 (11.9) no. (%)
  Aspartate aminotransferase increased: 25 (18.5) no. (%)
  Asthenia: 11 (8.1) no. (%)
  Constipation: 12 (8.9) no. (%)
  Decreased appetite: 28 (20.7) no. (%)
  Diarrhea: 74 (54.8) no. (%)
  Dry eye: 22 (16.3) no. (%)
  Dry mouth: 52 (38.5) no. (%)
  Dry skin: 30 (22.2) no. (%)
  Dysgeusia: 34 (25.2) no. (%)
  Fatigue: 18 (13.3) no. (%)
  Hyperphosphatemia: 106 (78.5) no. (%)
  Nausea: 14 (10.4) no. (%)
  Neutropenia: 0 no. (%)
  Onycholysis: 31 (23.0) no. (%)
  Onychomadesis: 27 (20.0) no. (%)
  Palmar-plantar erythrodysesthesia syndrome: 41 (30.4) no. (%)
  Stomatitis: 62 (45.9) no. (%)
count
  Treatment-related deaths: 1
Grade 3-4
  Central serous retinopathy: 3 (2.2) n (%)
  Eye disorders (excluding central serous retinopathy): 3 (2.2) n (%)
  Nail disorders: 15 (11.1) n (%)
  Skin disorders: 16 (11.9) n (%)
[4]
  Central serous retinopathy: 2.2%
  Nail disorders: 11.1%
  Skin disorders: 11.9%
Grade ≥3, treatment-related
  Onycholysis: 5.9%
